Measurements published in ChEMBL document CHEMBL1201862, “PubChem BioAssay data set” (2004).
Calls of active or inactive are those of the source.

Legend:
Coagulation factor XII = molecular target: T1, Coagulation factor XII (Homo sapiens, UniProt P00748); assay type: functional;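 further: activated factor XIIa alpha cleaving a fluorogenic AMC peptide substrate; inhibitor potency from loss of enzyme activity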
T1 sequence (P00748 whole entry): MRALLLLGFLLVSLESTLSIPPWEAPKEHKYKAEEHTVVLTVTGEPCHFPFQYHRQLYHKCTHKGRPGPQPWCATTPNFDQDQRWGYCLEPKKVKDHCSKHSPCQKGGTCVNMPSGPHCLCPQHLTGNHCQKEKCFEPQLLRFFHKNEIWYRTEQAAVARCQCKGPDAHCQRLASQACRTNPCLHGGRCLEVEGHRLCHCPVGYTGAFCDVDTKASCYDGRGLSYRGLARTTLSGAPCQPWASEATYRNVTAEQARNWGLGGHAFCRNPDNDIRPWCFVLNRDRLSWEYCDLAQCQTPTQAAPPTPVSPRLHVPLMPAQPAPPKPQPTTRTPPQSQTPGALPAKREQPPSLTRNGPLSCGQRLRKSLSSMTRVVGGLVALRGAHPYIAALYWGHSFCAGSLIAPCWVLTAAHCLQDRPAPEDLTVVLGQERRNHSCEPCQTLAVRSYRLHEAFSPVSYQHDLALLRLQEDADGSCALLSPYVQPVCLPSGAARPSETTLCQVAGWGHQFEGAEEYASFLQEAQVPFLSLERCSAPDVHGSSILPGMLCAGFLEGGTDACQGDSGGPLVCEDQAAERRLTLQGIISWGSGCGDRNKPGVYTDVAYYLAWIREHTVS

X-box-binding protein 1 = X-box-binding protein 1 (Homo sapiens, UniProt P17861); assay type: functional, Cricetulus griseus;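 further: confirmatory dose-response counter-screen serving a CHOP assay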
Sequence of X-box-binding protein 1 (P17861 whole entry): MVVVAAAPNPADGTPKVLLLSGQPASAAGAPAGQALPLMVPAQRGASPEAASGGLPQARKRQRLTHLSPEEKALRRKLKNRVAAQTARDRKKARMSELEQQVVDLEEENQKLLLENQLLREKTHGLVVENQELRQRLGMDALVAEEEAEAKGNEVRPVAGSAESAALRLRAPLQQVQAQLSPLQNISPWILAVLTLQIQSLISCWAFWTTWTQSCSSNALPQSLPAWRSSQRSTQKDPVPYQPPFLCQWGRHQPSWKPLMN

[1] = molecular target: T2, Neuropeptide Y receptor type 1 (Homo sapiens, UniProt P25929); assay: Fluorescence-based counterscreen for agonists of NPY-Y2: cell-based high-throughput dose response assay for agonists of NPY-Y1.; assay type: functional
T2 sequence (P25929 whole entry): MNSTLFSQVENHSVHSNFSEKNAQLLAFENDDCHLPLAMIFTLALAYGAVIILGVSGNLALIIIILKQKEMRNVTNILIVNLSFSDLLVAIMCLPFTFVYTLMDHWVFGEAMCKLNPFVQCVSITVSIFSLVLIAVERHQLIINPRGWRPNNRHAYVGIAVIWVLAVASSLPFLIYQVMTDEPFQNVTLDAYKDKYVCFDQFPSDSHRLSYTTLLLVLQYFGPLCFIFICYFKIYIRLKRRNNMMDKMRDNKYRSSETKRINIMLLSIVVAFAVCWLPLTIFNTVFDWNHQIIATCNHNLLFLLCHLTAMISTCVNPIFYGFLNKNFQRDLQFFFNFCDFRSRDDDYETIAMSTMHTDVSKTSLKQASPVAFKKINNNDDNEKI

HEK293 = assay: Fluorescence-based counterscreen for potentiators or agonists of NPY-Y2: cell-based high-throughput dose response assay to identify inhibitors of cyclic nucleotide gated ion channel (CNGC) activity. In this assay, the parental HEK293 cell line transfected with a cyclic-nucleotide gated ion channel (CNGC)-based cAMP sensor is used to measure inhibition of isoproterenol-induced CNGC activity by test compound.; assay type: functional; conditions: Homo sapiens;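 further: stimulus is 1 µM isoproterenol at EC100 plus PDE inhibitor Ro 20-1724 at 25 µM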
fMet-Leu-Phe receptor = fMet-Leu-Phe receptor (Homo sapiens, UniProt P21462); assay: formyl peptide receptor binders – dose response (AID 519); assay type: functional
Sequence of fMet-Leu-Phe receptor (P21462 whole entry): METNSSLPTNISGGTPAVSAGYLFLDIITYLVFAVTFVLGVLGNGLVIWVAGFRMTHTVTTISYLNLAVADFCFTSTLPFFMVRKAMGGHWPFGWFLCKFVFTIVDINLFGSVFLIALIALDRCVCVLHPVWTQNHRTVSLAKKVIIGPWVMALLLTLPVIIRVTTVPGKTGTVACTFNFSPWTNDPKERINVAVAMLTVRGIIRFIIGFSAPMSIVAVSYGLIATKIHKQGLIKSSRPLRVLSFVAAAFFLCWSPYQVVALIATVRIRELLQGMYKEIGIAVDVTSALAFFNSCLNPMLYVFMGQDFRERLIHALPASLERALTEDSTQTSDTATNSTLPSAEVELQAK

[2] = molecular target: T3, Neuropeptide Y receptor type 2 (Homo sapiens, UniProt P49146); assay: Fluorescence-based cell-based high-throughput dose response assay for agonists of NPY-Y2. [Related pubchem assays: 1703 (Screening assay (CNGC inhibitors).), 1359 (Screening assay (NPY-Y2 potentiators or agonists).), 1304 (Screening assay (NPY-Y1 potentiators or agonists).), 1710 (Screening assay (NPY-Y2 agonists).), 1791 (Summary AID.)]; assay type: functional
T3 sequence (P49146 whole entry): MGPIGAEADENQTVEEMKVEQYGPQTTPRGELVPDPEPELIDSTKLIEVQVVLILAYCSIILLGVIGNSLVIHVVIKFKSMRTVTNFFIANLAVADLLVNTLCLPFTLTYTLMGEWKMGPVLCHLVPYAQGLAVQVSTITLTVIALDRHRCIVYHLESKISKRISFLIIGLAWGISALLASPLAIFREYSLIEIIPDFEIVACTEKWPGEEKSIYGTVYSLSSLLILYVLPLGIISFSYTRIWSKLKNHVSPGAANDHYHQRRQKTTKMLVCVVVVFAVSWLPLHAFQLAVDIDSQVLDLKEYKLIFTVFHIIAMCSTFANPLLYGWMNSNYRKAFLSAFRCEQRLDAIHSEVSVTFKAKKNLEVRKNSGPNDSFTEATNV

[3] = alpha-synuclein stem-loop luciferase translation blockers – H4 neuroglioma cells, luminescence, confirmation (AID 1988); assay type: functional, cell-based
[4] = general cell-killing toxicity readout – plate reader, dry powder samples, cytotoxicity control for PAX8 inhibitor project, dose response (AID 743021); assay type: functional, cell-based
[5] = HEK-293T cell viability reduction – luminescence, B-cell screen hits, cytotoxicity control for BCR NF-kB inhibitor project, dose response (AID 489021); assay type: functional, cell-based;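 further: HEK-293T cells carrying an NF-kB luciferase reporter; cells exposed to compound for about 14 hours before viability readout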
Paired box protein Pax-8 = Paired box protein Pax-8 (Homo sapiens, UniProt Q06710); assay: PAX8 transcriptional activity inhibition in RMG-I – RMG-I cells, luciferase, cherry-pick, dose response (AID 687027); assay type: functional, cell-based;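 further: luciferase reporter driven by Pax8 target thyroperoxidase promoter measured by SteadyGlo luminescence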
Sequence of Paired box protein Pax-8 (Q06710 whole entry): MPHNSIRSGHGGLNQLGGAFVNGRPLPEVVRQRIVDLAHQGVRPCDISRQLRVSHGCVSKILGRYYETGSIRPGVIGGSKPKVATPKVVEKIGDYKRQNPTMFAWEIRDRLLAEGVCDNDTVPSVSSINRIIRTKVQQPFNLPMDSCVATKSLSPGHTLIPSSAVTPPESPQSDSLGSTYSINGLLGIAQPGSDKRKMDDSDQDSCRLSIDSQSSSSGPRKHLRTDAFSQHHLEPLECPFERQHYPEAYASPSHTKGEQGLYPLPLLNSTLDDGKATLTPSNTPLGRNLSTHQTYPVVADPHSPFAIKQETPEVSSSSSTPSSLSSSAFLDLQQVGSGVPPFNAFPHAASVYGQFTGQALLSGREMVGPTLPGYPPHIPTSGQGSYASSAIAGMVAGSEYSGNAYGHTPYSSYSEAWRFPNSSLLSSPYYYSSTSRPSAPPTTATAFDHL

[6] = Luminescence Cell-Based Dose Response HTS to Identify Inhibitors of 5'UTR Stem-Loop Driven Prion Protein mRNA Translation in H4 Neuroglioblastoma Cells. [Related pubchem assays: 1827 (Project Summary), 1813 (Primary HTS)]; assay type: functional
[7] = DRD fibroblast viability loss – cell-based, non-viral oncogenic, luminescence, dose response (AID 1934); assay type: functional; conditions: Homo sapiens
BJ [8] = assay: BJ-TERT fibroblast viability loss – cell-based, RAS-independent, luminescence, dose response (AID 1933); assay type: functional; conditions: Homo sapiens
[9] = HEK-293T viability loss after treatment – luminescence, T-cell screen hits, cytotoxicity control for TCR NF-kB inhibitor project, dose response (AID 489026); assay type: functional, cell-based;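 further: cells exposed to compound about 14 hours before the viability readout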
BJ [10] = assay: BJ-TERT-LT-ST fibroblast viability loss – cell-based, RAS-independent, luminescence, dose response (AID 1935); assay type: functional; conditions: Homo sapiens;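 further: BJ fibroblasts immortalized with TERT plus LT and ST oncogenes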
[11] = luciferase reporter signal suppression in cells – H4 neuroglioma cells, luminescence, dose response (AID 1990); assay type: functional, cell-based
[12] = luciferase reporter signal reduction – luminescence, H4-C neuroglioblastoma cells, dose response (AID 2458); assay type: functional, cell-based;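 further: H4 neuroglioblastoma cells stably carrying a luciferase reporter gene fusion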
cells [13] = assay type: functional, cell-based
BJ [14] = assay: cells; assay type: functional, cell-based; conditions: Homo sapiens
[15] = alpha-synuclein stem-loop translation blockers – luminescence, H4 neuroglioblastoma cells, dose confirmation, confirmation (AID 2454); assay type: functional, cell-based;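 further: H4 neuroglioblastoma cells carrying an alpha-synuclein 5'UTR luciferase reporter; potency for inhibition of the luciferase signal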
[16] = NIH3T3 cell viability loss – ATP luminescence, mouse fibroblasts, counter-screen, dose response (AID 2010); assay type: functional, cell-based;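 further: cells exposed to compound for about 90 hours before reading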
cells [17] = assay: cells
[18] = Counterscreen for AddAB inhibitors: absorbance-based bacterial cell-based high throughput dose response assay for inhibitors of bacterial viability. [Related pubchem assays (depositor defined):AID435030, AID449728, AID449731, AID488942, AID488955, AID488956]; assay type: functional
[19] = Trypanosoma cruzi growth suppression in host cells – NIH3T3 host cells, beta-gal luminescence, confirmation (AID 2044); assay type: functional, cell-based;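 further: intracellular parasites grown in NIH/3T3 mouse fibroblasts as host cells; luminescent beta-galactosidase reporter signal from transgenic T. cruzi replicating inside host cells; inhibitors lower the luminescence signal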

Question: For `COc1cccc(NC(C)(C)c2nnnn2-c2c(C)cccc2C)c1`, which IC50 (Coagulation factor XII) is on record?
Answer: > 50 µM (inactive)

Question: Which “Absolute IC50 (XBP1)” value (X-box-binding protein 1) does the source give for `CCCc1nc2oc(C(=O)c3ccccc3)c(N)c2c2c1COC(C)(C)C2` here?
Answer: 10 µM

Question: Which results are given for `O=C(O)C1CC=CCC1C(=O)N1CCN(c2nc(-c3ccccc3)c3ccccc3n2)CC1` (stereo not drawn)?
Answer: EC50 [1]: 22 µM (not active); EC50 (HEK293): > 3.94 µM (active); Ki (fMet-Leu-Phe receptor): > 66.7 µM (inactive); EC50 [2]: > 35.4 µM (not active)

Question: For `COc1ccc(OCc2cccc(C(=O)Nc3cc(C)on3)c2)cc1`, which EC50 [3] is on record?
Answer: 9.85 µM (inconclusive)

Question: What about the AC50 [4] of the same compound?
Answer: 43.9 µM (active)

Question: What about the IC50 [5] of the same compound?
Answer: > 80 µM (inactive)

Question: What about the AC50 (Paired box protein Pax-8) of the same compound?
Answer: 4.14 µM (active)

Question: What about the EC50 [6] of the same compound?
Answer: > 60 µM (not active)

Question: Which “Absolute IC50 (XBP1)” value (X-box-binding protein 1) does the source give for `CC1CCCC(NC(=O)COC(=O)/C=C/c2ccc3c(c2)OCO3)C1C` (stereo not drawn) here?
Answer: 10 µM

Question: Which results are given for `COc1cc(C2C3=C(Nc4ncnn42)c2ccccc2CC3)cc(OC)c1OC` (stereo not drawn)?
Answer: EC50 [7]: 0.532 µM (active); EC50 (BJ [8]): 0.572 µM (active); IC50 [9]: > 80 µM (inactive); EC50 [3]: < 0.1 µM (active); EC50 (BJ [10]): 0.498 µM (inconclusive); EC50 [11]: < 0.1 µM (active); AC50 (Paired box protein Pax-8): 2.18 µM (active); EC50 [12]: 0.21 µM (active); EC50 (cells [13]): 0.452 µM (active); EC50 [6]: < 0.1 µM (active); EC50 (BJ [14]): 0.659 µM (active); EC50 [15]: 0.348 µM (active)

Question: For `O=C(NCc1cccnc1)c1ccc([N+](=O)[O-])o1`, which EC50 [16] is on record?
Answer: > 60 µM (inconclusive)

Question: And the EC50 (cells [17])?
Answer: 0.137 µM (active)

Question: What about the IC50 [18] of the same compound?
Answer: > 39.5 µM (inactive)

Question: What about the EC50 [19] of the same compound?
Answer: < 0.1 µM (active)
